Data: US20080014272A1, “Compositions and Methods for Treatment of Chronic Pain Conditions” (priority 2006, published 2008)

Key:
[1] = WOMAC Osteoarthritis Index in human osteoarthritis subjects; format: in vivo; settings: 400 mg bicifadine and/or 800 mg ibuprofen twice daily for seven days; 3 h post-dose on last day; FIG. 3
Procedure: (§1) 23 adult human subjects with clinically confirmed osteoarthritis (OA) of the hip or knee were selected based on (1) a finding of OA through clinical analysis of hip or knee pain for at least six months, (2) stiffness symptoms that persisted for more than 30 minutes (4) crepitus and (5) score of >40 mm on the visual analog scale (VAS). […]
(§2) Each patient's pain and function levels was rated just prior to administration of the first dose in each treatment period to establish a baseline and three hours after administration of the final dose of each treatment period. Subjects were evaluated according to the visual analog scale (FIG. 2), the Western Ontario and MacMaster Universities Osteoarthritis Index (WOMAC) (FIG. 3) and a global assessment score (FIG. 4).
Subjects were also evaluated according to the Western Ontario and MacMaster Universities Osteoarthritis Index (WOMAC) and asked the following series of questions: […]

[2] = Visual analog scale (VAS) of osteoarthritis pain in human osteoarthritis subjects; format: in vivo; settings: 400 mg bicifadine and/or 800 mg ibuprofen twice daily for seven days; baseline to 3 hours post dose on final day; FIG. 2
Procedure: as §1, §2
For the visual analog scale, each subject was asked the following question: “Draw a vertical line on the scale to indicate the average amount osteoarthritis pain you have in your index hip or knee in the prior 24 h period. • No Pain [______] Worst Pain You Can Imagine 100 mm The length of the line from “No Pain” to the vertical line drawn by the patient was then measured to determine the VAS measurement.

[3] = Global Assessment of Study Medication in human osteoarthritis subjects; format: in vivo; settings: 400 mg bicifadine and/or 800 mg ibuprofen twice daily for seven days; 3 h post-dose on last day; scale 0-4; FIG. 4
Procedure: 23 adult human subjects with clinically confirmed osteoarthritis (OA) of the hip or knee were selected based on (1) a finding of OA through clinical analysis of hip or knee pain for at least six months, (2) stiffness symptoms that persisted for more than 30 minutes (4) crepitus and (5) score of >40 mm on the visual analog scale (VAS). […] (Altman R. Asch E, Bloch D, Bole G, Borenstein D, Brandt K, et al. The American College of Rheumatology criteria for the classification and reporting of osteoarthritis of the knee. Arthritis Rheum 1986; 29:1039-1049) The subjects were randomized to a sequence of 400 mg of bicifadine twice daily for seven days (B), ibuprofen 800 mg twice daily for seven days (I), placebo twice daily for seven days (P), or 400 mg bicifadine and 800 mg ibuprofen twice daily for seven days (B+I) as shown in Table 3. […]
as §2
Subjects were further evaluated for a global assessment and were asked the following question: […]

[4] = acute dental pain; Stern et al. 2005; cited from earlier work
[5] = Duration of analgesic efficacy and plasma bicifadine levels in acute pain studies; format: in vivo, human; settings: bicifadine HCl, unit doses about 200 mg, 400 mg, or 600 mg; acute dental pain and bunionectomy pain studies
Procedure: Duration of analgesic efficacy of bicifadine in acute dental pain studies was estimated using a “last observation carried forward” (LOCF) statistical method, and was projected to last up to 6 hours, or even up to 12 hours (see, e.g., Czobor P., et al., Stark J., Beer G., Petti S., Lippa A., Brown J., Beer B.: A Double-Blind, Placebo Controlled Randomized Study of DOV220,075 (bicifadine) SR and Codeine 60 mg in the Treatment of Post-Operative Dental Pain. Presented at the 2nd Annual Scientific Meeting Mar. 20-23, 2003 Chicago, Ill. American Pain Society Abstract Database at http://www.ampainsoc.org/abstract/2003/data/index.html. (Poster #915)); Czobor P., Stark J., Beer G., Brown J., Sunshine A., Konery S., Turpin M., Olson N., Otero A., Lippa A., Beer B.: A two center double-blind, placebo-controlled randomized study of DOV 220,075 (bicifadine) SR and Tramadol 100 mg in the treatment of post-operative dental pain. The Journal of Pain, 2004: 5(1), Supplement 1, p 59. Presented at the Joint APS and Canadian Pain Society Annual Meeting (23rd APS Annual Scientific Meeting) May 6-9, 2004, Vancouver, BC Canada. American Pain Society Abstract Database at http://www.ampainsoc.org/abstract/2004/data/index.html (Poster #801); each incorporated herein by reference). […]

[6] = Monoiodoacetamide (MIA)-induced osteoarthritis in rats, hind paw weight distribution; format: in vivo, Male Wistar rats; settings: oral gavage (PO), Day 14 post MIA injection, 1 and 2 hours post-administration; bicifadine 5, 10, 20, 40 or 60 mg/kg, morphine 60 mg/kg; FIG. 1
Procedure: Animals were fed standard rat chow with water available ad libitum.
The rats were anesthetized with 5% volume/volume (“v/v”) isoflurane gas and maintained with 2% v/v isoflurane gas. […] MIA was dissolved in physiologic saline and administered in a volume of 50 μL. The contralateral control knee was injected with 50 μL of physiologic saline. Administration of isoflurane gas was discontinued, and the rats became fully conscious about 5 minutes later.
Shifts in hind paw weight distribution from the right to the left hind paws supporting the right (arthritic) and the left (contralateral control) hind leg knee joints were utilized as an index of joint pain and as a measure of compound efficacy. An incapacitance tester (Model 2KG, Linton Instrumentation, UK) was employed for determination of hind paw weight distribution.
The acute dosing paradigm used herein relates to osteoarthritis signs such as mobility and joint function and osteoarthritis symptoms such as joint pain.

[7] = Use of rescue medication in acute dental pain clinical trial (Stern et al.); format: in vivo, human
Procedure: These conclusions are further substantiated by the use of rescue medication by subjects in the Stem et al. acute dental pain studies. Table I below summarizes information on the use of rescue medication for patients who took rescue medication among the various treatment groups in the clinical trial reported by Stern et al. (id.) A nonparametric analysis (Median Test) was conducted to evaluate the median latency to rescue medication.
Survival analysis (Kaplan-Meier method, 95% confidence) was performed to compare the treatment groups with regard to time-to-rescue medication. […] The analysis yielded a statistically significant difference among the treatment groups (Log-Rank test, Chi-square=26.9, df=4, P=0.0001). […] In view of the foregoing evidence, the present disclosure documenting efficacy of a reduced, bi-daily or less frequent dosing regimen of bicifadine to yield effective treatment of chronic pain are unexpected. […] It is a surprising benefit, therefore, that a dosing regimen consisting of only one or two doses of bicifadine effectively alleviates symptoms of chronic pain over an extended period. The extended period of efficacy of the novel compositions and dosage forms of the invention provide significant relief of chronic pain symptoms over a period of at least 8 hours, or at least 12 hours, often at least 18 hours, and up to 24 hours or longer.

Row | SMILES | Improvement of functioning as determined by the WOMAC osteoarthritis index [1] | Reduction of OA pain as measured by the visual analog scale [2] | Global assessment score of study medication [3] | Plasma bicifadine levels associated with the greatest pain relief [4] [ng/mL] | Plasma drug levels associated with significant analgesic efficacy [4] [ng/mL] | Plasma drug levels not associated with significant analgesic effects [4] [ng/mL] | Period of analgesic efficacy for effectively treating acute pain [5] | Effect on osteoarthritis-related pain (change in hind paw weight distribution) [6] | Time-to-rescue medication vs placebo (Kaplan-Meier survival analysis, Log-Rank test) ([7]; 100-mg, Chi-square=18.7, df=1, P=0.0001) | Median Time to Rescue Medication ([7]; single dose 100 mg) [h] | Used Rescue Medication (N) No ([7]; single dose 100 mg) | Used Rescue Medication (N) Yes ([7]; single dose 100 mg)
1 | Cc1ccc(C23CNCC2C3)cc1 (racemic) [bicifadine, (±)-1-(4-methylphenyl)-3-azabicyclo[3.1.0]hexane] | no better than placebo | no different than treatment with placebo | marginally better than treatment with either placebo or ibuprofen alone | > 1000 | 500 to 1000 | ≤ 500 | up to 6 hours | no significant effect |  |  |  | 
2 | COc1cccc(C2(O)CCCCC2CN(C)C)c1 (centres unmarked) [Tramadol] |  |  |  |  |  |  |  |  | significantly less likely to use rescue medication | 2.45 | 24 | 85
3 | CC(C)Cc1ccc(C(C)C(=O)O)cc1 (centres unmarked) [ibuprofen, reference compound] | no better than placebo | no different than treatment with placebo |  |  |  |  |  |  |  |  |  | 
